Test [1] deals with MCF7. The experiment in a line: Cytotoxicity against human MCF7 cells after 6 days.
For test [2], the system named is BT-474. The experiment in a line: Cytotoxicity against human BT474 cells after 6 days.
The nature of test [3]: Cytotoxicity against human Hs 578T cells after 6 days.
Test [4] has as its system MIA PaCa-2. The experiment in a line: Cytotoxicity against human MIAPaCa2 cells after 6 days.
Test [5] deals with MCF7. Put plainly: Cytotoxicity against human MCF7 cells after 24 hrs. It counts as functional, cell-based.
The test system of test [6] is BT-474. Put plainly: Cytotoxicity against human BT474 cells after 24 hrs. It counts as functional, cell-based.
The nature of test [7]: Cytotoxicity against human Hs 578T cells after 24 hrs. Type of test: functional, cell-based.
Test [8] relates to MIA PaCa-2. Put plainly: Cytotoxicity against human MIAPaCa2 cells after 24 hrs. Type of test: functional, cell-based.
The mark [9] stands for this setting: Homo sapiens, MCF7, 6 days, read-out: IC50.
Setting [10] is: Homo sapiens, BT-474, 6 days, read-out: IC50.
The mark [11] stands for this setting: Homo sapiens, Hs-578T, 6 days, read-out: IC50.
Setting [12] is: Homo sapiens, MIA PaCa-2, 6 days, read-out: IC50.

What is called IC50 is the point on the concentration scale where inhibition reaches its midpoint.

For `C[C@H]1OC2=C(C(=O)c3ccccc3C2=O)C1(C)C`, the half-inhibitory concentration (IC50) in test [1] (setting [9]) was 5.8 µM; in test [2] (setting [10]) it was 4.5 µM; in test [3] (setting [11]), over 10 µM; in test [4] (setting [12]), 4.6 µM.

With `C[C@H]1OC2=C(C(=O)c3ccc(O)cc3C2=O)C1(C)C`, the IC50 in test [1] (setting [9]) was 5.7 µM; in test [2] (setting [10]), 4.9 µM; in test [3] (setting [11]) it was over 10 µM; in test [4] (setting [12]) it was 6.7 µM.

As for `Cc1ccc2c(c1O)C(=O)c1ccccc1C2=O`, the IC50 entry in test [5], in test [6], in test [7] and in test [8] was “Not Active” each time.

For the molecule `COc1cc2c(cc1O)C(=O)C1=C(O[C@H](C)C1(C)C)C2=O`, the IC50 result in test [1] (mcf7), in test [2] (bt-474), in test [3] (hs-578t) and in test [4] (mia paca-2) was “Not Active” in each case.

Consider `C[C@H]1OC2=C(C(=O)C(=O)c3ccccc32)C1(C)C` [(3R)-DUNNIONE], for which the IC50 in test [1] (setting [9]) was found to be 2.3 µM; in test [2] (setting [10]) it was 1 µM; in test [3] (setting [11]), 5 µM; in test [4] (setting [12]), 1.9 µM.

(Values after ChEMBL document CHEMBL1667721, “Isolation, structure elucidation, and cytotoxic evaluation of furanonaphthoquinones from in vitro plantlets and cultures of Streptocarpus dunnii” (J Nat Prod, 2011).)
